# Columns and labels:
# [1] = biological target: T1, alpha2C adrenergic receptors (Homo sapiens, UniProt P18825); assay: Receptor Selection and Amplification Technology (RSAT) assay, alpha2C; assay type: cell-based; conditions: for EC50: NA = not active at concentrations less than 10 micromolar, read-out: Alpha 2C EC50; for Alpha 2C intrinsic activity: fraction of maximal effect of standard full agonist brimonidine (UK14304)
# T1 construct: expressed in transfected cells; host or cells: NIH-3T3
# T1 sequence (P18825 1-462): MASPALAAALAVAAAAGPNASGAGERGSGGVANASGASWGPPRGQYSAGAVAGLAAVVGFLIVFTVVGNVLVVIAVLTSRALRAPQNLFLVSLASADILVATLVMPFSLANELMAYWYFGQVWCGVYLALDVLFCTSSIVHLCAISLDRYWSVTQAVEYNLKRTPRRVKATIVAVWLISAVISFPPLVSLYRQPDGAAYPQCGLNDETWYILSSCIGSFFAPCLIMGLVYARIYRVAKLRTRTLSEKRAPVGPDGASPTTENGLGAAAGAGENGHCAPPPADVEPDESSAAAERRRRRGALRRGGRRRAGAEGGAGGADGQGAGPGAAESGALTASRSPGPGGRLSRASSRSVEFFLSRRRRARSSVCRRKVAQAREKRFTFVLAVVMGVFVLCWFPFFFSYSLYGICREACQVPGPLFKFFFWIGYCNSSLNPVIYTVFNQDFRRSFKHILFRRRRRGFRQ
# Source text: (§1) The imidazole-2-thione compounds of the invention are agonists of alpha2 adrenergic receptors, particularly they tend to be specific or selective agonists of alpha2B and/or to a lesser extent alpha2C adrenergic receptors, in preference over alpha2A adrenergic receptors. […] Al., 1995, Pharmacol. Toxicol. 76, pp. 308-311 (incorporated herein by reference) and is also described below. Another reference pertinent to this assay is Conklin et al. (1993) Nature 363:274-6, also incorporated herein by reference.
# (§2) Receptor Selection and Amplification Technology (RSAT) Assay
# (§3) The RSAT assay measures a receptor-mediated loss of contact inhibition that results in selective proliferation of receptor-containing cells in a mixed population of confluent cells. The increase in cell number is assessed with an appropriate transfected marker gene such as β-galactosidase, the activity of which can be easily measured in a 96-well format. Receptors that activate the G protein, Gq, elicit this response. Alpha2 receptors, which normally couple to Gi, activate the RSAT response when coexpressed with a hybrid Gq protein that has a Gi receptor recognition domain, called Gq/i5.
# (§4) NIH-3T3 cells are plated at a density of 2×10^6 cells in 15 cm dishes and maintained in Dulbecco's modified Eagle's medium supplemented with 10% calf serum. One day later, cells are cotransfected by calcium phosphate precipitation with mammalian expression plasmids encoding p-SV-β-galactosidase (5-10 μg), receptor (1-2 μg) and G protein (1-2 μg). 40 μg salmon sperm DNA may also be included in the transfection mixture. Fresh media is added on the following day and 1-2 days later, cells are harvested and frozen in 50 assay aliquots. Cells are thawed and 100 μl added to 100 μl aliquots of various concentrations of drugs in triplicate in 96-well dishes. Incubations continue 72-96 hr at 37 EC. After washing with phosphate-buffered saline, β-galactosidase enzyme activity is determined by adding 200 μl of the chromogenic substrate (consisting of 3.5 mM o-nitrophenyl-β-D-galactopyranoside and 0.5% nonidet P-40 in phosphate buffered saline), incubating overnight at 30 EC and measuring optical density at 420 nm. The absorbance is a measure of enzyme activity, which depends on cell number and reflects a receptor-mediated cell proliferation. The EC50 and maximal effect of each drug at each alpha2 receptor is determined. The efficacy or intrinsic activity is calculated as a ratio of the maximal effect of the drug to the maximal effect of a standard full agonist for each receptor subtype. Brimonidine, also called UK14304, the chemical structure of which is shown below, is used as the standard agonist for the alpha2A, alpha2B and alpha2C receptors.
# (§5) The results of the RSAT assay with several exemplary compounds of the invention are disclosed in Table 1 above together with the chemical formulas of these examplary compounds. […] NA stands for “not active” at concentrations less than 10 micromolar. As is known EC50 is the concentration at which half of a given compound's maximal activity is observed.
# [2] = biological target: T2, alpha2B adrenergic receptors (Homo sapiens, UniProt P18089); assay: Receptor Selection and Amplification Technology (RSAT) assay, alpha2B; assay type: cell-based; conditions: for EC50: NA = not active at concentrations less than 10 micromolar, read-out: Alpha 2B EC50; for Alpha 2B intrinsic activity: fraction of maximal effect of standard full agonist brimonidine (UK14304)
# T2 construct: expressed in transfected cells; host or cells: NIH-3T3
# T2 sequence (P18089 1-450): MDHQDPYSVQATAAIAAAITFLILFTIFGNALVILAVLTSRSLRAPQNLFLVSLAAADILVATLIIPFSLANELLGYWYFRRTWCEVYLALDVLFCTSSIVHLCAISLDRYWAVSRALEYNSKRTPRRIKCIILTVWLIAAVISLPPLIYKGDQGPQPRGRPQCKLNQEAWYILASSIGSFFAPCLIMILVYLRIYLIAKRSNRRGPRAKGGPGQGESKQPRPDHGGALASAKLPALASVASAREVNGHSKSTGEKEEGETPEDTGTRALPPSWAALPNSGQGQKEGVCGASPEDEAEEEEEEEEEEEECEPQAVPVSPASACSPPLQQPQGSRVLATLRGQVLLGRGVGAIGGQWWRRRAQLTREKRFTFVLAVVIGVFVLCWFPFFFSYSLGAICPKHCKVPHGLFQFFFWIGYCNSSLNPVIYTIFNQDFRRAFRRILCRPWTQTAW
# Source text: as §1, §2, §3, §4, §5
SMILES,EC50 [1] [nM],Alpha 2C intrinsic activity [1],EC50 [2] [nM],Alpha 2B intrinsic activity [2]
S=c1[nH]cc(CC2CCC3=C2CCCC3)[nH]1 (stereo not drawn),602,0.55,30,1.06
CC1=CCCCC1Cc1c[nH]c(=S)[nH]1 (stereo not drawn),677,1.13,85,1.07
CCC1=CCCCC1Cc1c[nH]c(=S)[nH]1 (stereo not drawn),331,1.0,161,1.0
CC1Cc2ccccc2C1Cc1c[nH]c(=S)[nH]1 (stereo not drawn),> 2000,0.57,578,1.1
CC1CC(Cc2c[nH]c(=S)[nH]2)c2ccccc21 (stereo not drawn),1020,1.39,33,1.01
S=c1[nH]cc(CC2C=CCCC2)[nH]1 (stereo not drawn),> 2000,0.70,665,1.12
Cc1c(Cl)ccc2c1CC(c1c[nH]c(=S)[nH]1)C2 (stereo not drawn),561,0.45,14,0.91
S=c1[nH]cc(C2Cc3ccc(Cl)c(Cl)c3C2)[nH]1 (stereo not drawn),190,0.53,7,1
Fc1cc2c(cc1F)C(Cc1c[nH]c(=S)[nH]1)CC2 (stereo not drawn),662,0.38,354,0.363
S=c1[nH]cc(CC2CCc3c(Br)cccc32)[nH]1 (stereo not drawn),168,0.59,87,0.73
S=c1[nH]cc(CC2CCCc3cccnc32)[nH]1 (stereo not drawn),2820,0.46,236,1.07
Cc1ccc(C2=CCCC2Cc2c[nH]c(=S)[nH]2)cc1 (stereo not drawn),> 3000,0.46,2180,0.47
COc1ccc(C2=CCCC2Cc2c[nH]c(=S)[nH]2)cc1 (stereo not drawn),568,0.47,> 3000,0.56
O=[N+]([O-])c1cccc(C2=CCCC2Cc2c[nH]c(=S)[nH]2)c1 (stereo not drawn),2510,,> 10000,
Fc1cccc(C2=CCC[C@H]2Cc2c[nH]c(=S)[nH]2)c1,916,0.37,191,0.53
Fc1cc(F)cc(C2=CCC[C@H]2Cc2c[nH]c(=S)[nH]2)c1,790,0.58,472,0.83
Fc1cc(F)cc(C2=CCC[C@@H]2Cc2c[nH]c(=S)[nH]2)c1,569,0.68,1600,0.59
Fc1ccc(C2=CCCC2Cc2c[nH]c(=S)[nH]2)cc1F (stereo not drawn),205,0.68,225,0.44
S=c1[nH]cc(CC2CCC=C2c2ccc(Cl)s2)[nH]1 (stereo not drawn),2760,0.75,1100,0.69
Fc1ccc(C2=CCCC2Cc2c[nH]c(=S)[nH]2)c(F)c1 (stereo not drawn),290,0.62,219,0.42
S=c1[nH]cc(CC2CCC=C2c2cccs2)[nH]1 (stereo not drawn),611,0.42,234,0.53

# The next compounds have a lower EC50 [1] than those just listed; values first:
EC50 [1] [nM],Alpha 2C intrinsic activity [1],EC50 [2] [nM],Alpha 2B intrinsic activity [2],SMILES
155,1.01,498,0.91,N#Cc1ccc(C2=CCCC2Cc2c[nH]c(=S)[nH]2)cc1 (stereo not drawn)
152,0.77,459,0.68,Fc1ccc(C2=CCCC2Cc2c[nH]c(=S)[nH]2)cc1 (stereo not drawn)
137,0.42,24,0.93,S=c1[nH]cc(CC2CCCc3ccccc32)[nH]1 (stereo not drawn)
131,0.72,269,0.97,Fc1ccc(C2=CCC[C@@H]2Cc2c[nH]c(=S)[nH]2)cc1
101,0.49,7,0.96,S=c1[nH]cc(C2Cc3cccc(I)c3C2)[nH]1 (stereo not drawn)
92,0.86,7,1.27,Cc1ccc(C)c2c1CC(c1c[nH]c(=S)[nH]1)C2
92,,21,,CC1=C(c2ccc([N+](=O)[O-])cc2)C(Cc2c[nH]c(=S)[nH]2)CC1 (stereo not drawn)
57,0.5,603,0.98,CCCC1=C(c2ccc(F)cc2)C(Cc2c[nH]c(=S)[nH]2)CC1 (stereo not drawn)
47,1.11,115,0.89,CC1=C(c2cc(F)cc(F)c2)C(Cc2c[nH]c(=S)[nH]2)CC1 (stereo not drawn)
45,0.74,< 2,1.15,S=c1[nH]cc(C2Cc3cccc(Cl)c3C2)[nH]1 (stereo not drawn)
42,0.63,34,1.01,Fc1ccc2c(c1)C(Cc1c[nH]c(=S)[nH]1)CC2 (stereo not drawn)
41,0.85,22,0.93,CC1=C(c2ccc(C#N)cc2)C(Cc2c[nH]c(=S)[nH]2)CC1 (stereo not drawn)
40,0.52,103,0.97,CCC1=C(c2ccc(F)cc2)C(Cc2c[nH]c(=S)[nH]2)CC1 (stereo not drawn)
34.5,0.82,22.5,0.97,CC1=C(c2ccc(F)cc2)C(Cc2c[nH]c(=S)[nH]2)CCC1 (stereo not drawn)
22,0.95,51,0.78,CC1=C(c2ccc(F)cc2)C(Cc2c[nH]c(=S)[nH]2)CC1 (stereo not drawn)
9,0.45,32,0.9,Fc1ccc(C2=C(C3CC3)CCC2Cc2c[nH]c(=S)[nH]2)cc1 (stereo not drawn)

# From patent publication US7323485B2, “4-(substituted cycloalkylmethyl) imidazole-2-thiones, 4-(substituted cycloalkenylmethyl) imidazole-2-thiones, 4-(substituted cycloalkylmethyl) imidazol-2-ones and 4-(substituted cycloalkenylmethyl) imidazol-2-ones and related compounds” (Allergan, Inc., priority 2002, dated 2008)
